Data from publication PMC5691318 (Journal of the American Chemical Society, 2017).
Where a SMILES comes first, the peptide text is derived from it. [ ]: non-standard residue; d: D form. pS = N[C@@H](COP(=O)(O)O)C(=O)O

Assays:
[1] = target: T1, 14-3-3ζ (Homo sapiens, UniProt P63104); assay: Isothermal titration calorimetry; type: binding
T1 sequence (P63104 1-230): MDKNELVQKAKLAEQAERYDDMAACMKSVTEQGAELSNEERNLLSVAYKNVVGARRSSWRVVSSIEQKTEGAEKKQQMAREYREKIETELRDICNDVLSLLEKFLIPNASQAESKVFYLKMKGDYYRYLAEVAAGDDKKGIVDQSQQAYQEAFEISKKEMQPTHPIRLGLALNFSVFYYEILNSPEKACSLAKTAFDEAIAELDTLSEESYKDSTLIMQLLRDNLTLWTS
T1 sequence (P30307 207-244 partner): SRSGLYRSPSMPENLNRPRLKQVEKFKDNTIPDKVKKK

[2] = tested on: Arf1/Arf1GAP; settings: ref [48],[49]; cited from earlier work
[3] = tested on: 14-3-3ζ/Cdc25CpS216 interaction; assay: ITC: reinforcement of the 14-3-3ζ/Cdc25CpS216 interaction by CLR01; type: binding; settings: 250 μM or 1.5 mM CLR01 vs no CLR01
[4] = Potentiometric pKa determination; type: physicochemical; settings: determined potentiometrically
[5] = tested on: 14-3-3/C-Raf peptide; settings: fluorescence polarization, labeled peptide; ref [31]; cited from earlier work
[6] = tested on: 14-3-3/Exoenzyme S peptide; settings: fluorescence polarization, labeled peptide; ref [31]; cited from earlier work
[7] = tested on: 14-3-3 proteins with the potassium channel TASK3; settings: ref [47]; cited from earlier work
[8] = tested on: TASK3 plasma membrane localization; settings: ref [47]; cited from earlier work
[9] = tested on: 14-3-3 with the protein kinase C-Raf; settings: ref [48]; cited from earlier work
[10] = tested on: 14-3-3 with the chloride channel CFTR; settings: ref [18]; cited from earlier work
[11] = target: T2, Cdc25CpS216 peptide (Homo sapiens, not fully specified; phosphoSer216, 1.5 mM CLR01); assay: ITC
T2 chain: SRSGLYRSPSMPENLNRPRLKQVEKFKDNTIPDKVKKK

[12] = target: T3, Cdc25CpS216 peptide (Homo sapiens, not fully specified; phosphoSer216, 250 μM CLR01); assay: ITC
T3 chain: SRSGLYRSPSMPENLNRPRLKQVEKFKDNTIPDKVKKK

[13] = target: T4, Cdc25CpS216 peptide (Homo sapiens, not fully specified; phosphoSer216); assay: ITC
T4 chain: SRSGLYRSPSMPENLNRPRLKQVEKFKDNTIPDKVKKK

Molecule: CC[C@H](C)[C@H](NC(=O)[C@@H](NC(=O)[C@H](CC(N)=O)NC(=O)[C@H](CC(=O)O)NC(=O)[C@H](CCCCN)NC(=O)[C@H](Cc1ccccc1)NC(=O)[C@H](CCCCN)NC(=O)[C@H](CCC(=O)O)NC(=O)[C@@H](NC(=O)[C@H](CCC(N)=O)NC(=O)[C@H](CCCCN)NC(=O)[C@H](CC(C)C)NC(=O)[C@H](CCCNC(=N)N)NC(=O)[C@@H]1CCCN1C(=O)[C@H](CCCNC(=N)N)NC(=O)[C@H](CC(N)=O)NC(=O)[C@H](CC(C)C)NC(=O)[C@H](CC(N)=O)NC(=O)[C@H](CCC(=O)O)NC(=O)[C@@H]1CCCN1C(=O)[C@H](CCSC)NC(=O)[C@H](COP(=O)(O)O)NC(=O)[C@@H]1CCCN1C(=O)[C@H](CO)NC(=O)[C@H](CCCNC(=N)N)NC(=O)[C@H](Cc1ccc(O)cc1)NC(=O)[C@H](CC(C)C)NC(=O)CNC(=O)[C@H](CO)NC(=O)[C@H](CCCNC(=N)N)NC(=O)[C@@H](N)CO)C(C)C)[C@@H](C)O)C(=O)N1CCC[C@H]1C(=O)N[C@@H](CC(=O)O)C(=O)N[C@@H](CCCCN)C(=O)N[C@H](C(=O)N[C@@H](CCCCN)C(=O)N[C@@H](CCCCN)C(=O)N[C@@H](CCCCN)C(=O)O)C(C)C [Cdc25CpS216] (H-SRSGLYRSP[pS]MPENLNRPRLKQVEKFKDNTIPDKVKKK-OH)
- Kd [1]: 5.16 µM

Molecule: C[C@H]1CCC/C=C/[C@@H]2C[C@H](O)C[C@H]2[C@H](O)/C=C/C(=O)O1 [brefeldin A]
- stabilization factor of target protein complex Arf1/Arf1GAP [2]: 10

Molecule: O=P(O)(O)Oc1c2c(c(OP(=O)(O)O)c3c1C1CC3c3cc4c(cc31)C1CC4c3ccccc31)C1CC2c2cc3c(cc21)C1CC3c2ccccc21 [CLR01]
- reinforcement of the 14-3-3ζ/Cdc25CpS216 interaction [3]: 2–3 fold
- second pKa value of the hydrogen phosphate group [4]: 7.4
- effect on binding of C-Raf-derived peptide to 14-3-3 [5]: inhibited
- effect on binding of Exoenzyme S-derived peptide to 14-3-3 [6]: inhibited

Molecule: COCC1CCC2C1=CC1(C)C(=C(C(C)C)C3CCOC31)C(OC1OC3COC(C)(C)OC3C(O)C1O)C(O)C2C (stereo not shown) [FC-THF]
- stabilization of the interaction of 14-3-3 proteins with TASK3 [7]: around 19 fold
- increase in plasma membrane localization [8]: 50%

Molecule: COCC1O[C@H](O[C@@H]2C3=C(C(C)C)CC[C@]3(C)/C=C3\[C@@H](CC[C@]3(O)COC)[C@@H](C)[C@H]2O)C(O)C2OC3O[C@]12O[C@@]3(C)C1CO1 (stereo partly shown) [cotylenin A]
- stabilization factor of 14-3-3 binding with C-Raf [9]: 17

Molecule: C=CC(C)(C)OC[C@H]1O[C@H](O[C@@H]2C3=C([C@H](C)COC(C)=O)C[C@H](O)[C@]3(C)/C=C3/[C@@H](COC)CC[C@H]3[C@@H](C)[C@H]2O)[C@H](O)[C@@H](OC(C)=O)[C@@H]1O [fusicoccin]
- stabilization factor of 14-3-3 binding with CFTR [10]: 9

B1: 14-3-3ζ (protein)
chain: MDKNELVQKAKLAEQAERYDDMAACMKSVTEQGAELSNEERNLLSVAYKNVVGARRSSWRVVSSIEQKTEGAEKKQQMAREYREKIETELRDICNDVLSLLEKFLIPNASQAESKVFYLKMKGDYYRYLAEVAAGDDKKGIVDQSQQAYQEAFEISKKEMQPTHPIRLGLALNFSVFYYEILNSPEKACSLAKTAFDEAIAELDTLSEESYKDSTLIMQLLRDNLTLWTSDTQGDEAEAGEGGEN
- Kd [11]: 2.06 µM
- Kd [12]: 2.75 µM
- Kd [13]: 5.16 µM
